Assay results published in paper PMC5991393, “Pharmacokinetic properties of a novel inosine analog, 4′-cyano-2′-deoxyinosine, after oral administration in rats” (PLoS ONE, 2018).
Entries after “also recorded” stand apart in the source; their conditions may differ. Each block holds one compound with its values, some of them ahead of it.

How the values were obtained:
[1] = system: HBVA181T/N236T; parameters: method as in PMID 26122273; conditions: adefovir dipivoxil-resistant variant; cited from earlier work
[2] = system: HBVL180M/S202G/M204V; parameters: method as in PMID 26122273; conditions: entecavir-resistant variant; cited from earlier work
[3] = system: wild-type HBV; parameters: method as in PMID 26122273; conditions: cited from earlier work
[4] = Pharmacokinetic study of oral co-administration of SK14-061a and ETV in rats; assay type: in vivo
Protocol: At stipulated times after the administration (15 min, 45 min, 90 min, 3, 6 and 9 hr), venous blood samples were collected by means of a heparinized syringe (0.25ml). The blood samples were centrifuged (3,000 rpm, 10 min) to obtain plasma. […] All data are expressed as the mean ± S.D. Statistical analyses for multiple comparisons were determined by an analysis of variance (two-way ANOVA) using the Bonferroni correction for multiple comparisons. A probability value of p < 0.05 was considered to be significant. A non-compartment model was used for the pharmacokinetic analysis. Parameters were calculated using the program of a moment analysis developed by Tabata et al. Half-life (t1/2) were calculated from the elimination phase. Area under the concentration-time curve (AUC) were calculated using the following equations: AUC=∫0∞Cdt

[5] = Pharmacokinetic study of SK14-061a after oral and intravenous administration in rats; assay type: in vivo; conditions: 1 mg/kg
Protocol: (§1) Rats were fasted for 12 h but with free access to water before dosing. Rats were orally (p.o.) administered a SK14-061a solution at a dose of 1 mg/kg. At stipulated times after the administration (15 min, 45 min, 90 min, 3, 4.5, 6 and 9 hr), venous blood samples were collected from tail vein using a heparinized syringe (0.25ml). The blood samples were centrifuged (3,000 rpm, 10 min) to obtain plasma. Urine samples were collected in a metabolic cage for 9 hr after the administration of the SK14-061a solution. After obtaining the last blood sample, all rats were sacrificed and kidneys and liver collected. To determine the time-dependent tissue distribution of SK14-061a, rats were sacrificed and organs (kidneys and liver) were collected at 1 and 3 hr after the oral administration of SK14-061a at a dose of 1 mg/kg. To calculate bioavailability, plasma concentrations of SK14-061a after intravenous administration (1 mg/kg) were also obtained at 3 min, 15 min, 30 min, 1, 3, 6 and 9 hr. Before the LC-MS analysis, plasma samples that were collected for pharmacokinetic studies were treated in the same manner as described in the "Validation assays" section. A portion of the liver and kidney tissues (about 500 mg) were homogenized in water (1 mL). The homogenized samples were subsequently ultracentrifuged at 100,000 g for 1 hr, and the supernatant collected. Urine samples were centrifuged (3,000 rpm, 10 min) and the supernatants were used in the analyses. All samples derived from organs and urine were processed using a Waters Oasis MCX 96 well plate in the same manner as was used for the plasma samples before the LC-MS analysis. All data are expressed as the mean ± S.D. Statistical analyses for multiple comparisons were determined by an analysis of variance (two-way ANOVA) using the Bonferroni correction for multiple comparisons. A probability value of p < 0.05 was considered to be significant. A non-compartment model was used for the pharmacokinetic analysis. Parameters were calculated using the program of a moment analysis developed by Tabata et al. Half-life (t1/2) were calculated from the elimination phase. Area under the concentration-time curve (AUC) were calculated using the following equations: AUC=∫0∞Cdt

[6] = Tissue distribution to liver and kidney after oral administration; assay type: in vivo; conditions: rats, p.o., 1 mg/kg
Protocol: as §1, with “analysis.” for “analysis. All data are expressed as the mean ± S.D. Statistical analyses for multiple comparisons were determined by an analysis of variance (two-way ANOVA) using the Bonferroni correction for multiple comparisons. A probability value of p < 0.05 was considered to be significant. A non-compartment model was used for the pharmacokinetic analysis. Parameters were calculated using the program of a moment analysis developed by Tabata et al. Half-life (t1/2) were calculated from the elimination phase. Area under the concentration-time curve (AUC) were calculated using the following equations: AUC=∫0∞Cdt”

[7] = Clinical chemistry (liver and kidney toxicity) after oral SK14-061a; assay type: in vivo, Sprague-Dawley rats; conditions: p.o., 1 mg/kg, 9 hr after administration
Protocol: Sprague-Dawley rats (male, 230–270 g) were purchased from the Kyudo Co., Ltd. (Saga, Japan). All animals were maintained under conventional housing conditions, with food and water ad libitum in a temperature-controlled room with a 12 hr dark/light cycle. Maintenance of the animals and the experimental procedures performed on them were carried out in accordance with NIH guidelines. All animal experiments were reviewed and approved by the Animal Care and Use committee of Sojo University (Permit #: 2015-P-020). Eight rats were divided into two group: non-treatment group as a control (n = 4) and SK14-061a-treated group (p.o., 1 mg/kg, n = 4). […] The blood samples were centrifuged (3,000 g, 5 min) to obtain plasma for analysis of aspartate aminotransferase (AST), alanine aminotransferase (ALT), urea nitrogen (BUN) and creatinine. All plasma samples were stored at -80 °C prior to analysis by a commercial clinical testing laboratory (Oriental Yeast Co., Tokyo, Japan).

[8] = system: HIV-1M184V; parameters: method as in PMID 15200030; conditions: lamivudine-resistant; cited from earlier work
[9] = system: human α1-acid glycoprotein (AGP); assay: Protein binding by ultrafiltration, AGP; assay type: in vitro ADME; conditions: 45 μM AGP, 500 ng/mL
Protocol: (§2) Protein binding assays were performed following a previous reported procedure, with minor modifications. In short, pooled human plasma, 600 μM HSA and 45 μM AGP were spiked with an aqueous solution of SK14-061a to produce a final SK14-061a concentration of 500 ng/mL, respectively. The unbound drug fraction was determined by ultrafiltration. Ultrafiltration was carried out using an Amicon® Ultra-0.5 mL centrifugal filter unit with an Ultracel®-30 membrane (Merck Millipore Company, MA). Samples of 500 μL were centrifuged at 14,000 g for 10 min. The SK14-061a concentration were determined by LC-MS without the SPE method.

[10] = Urinary excretion of unchanged SK14-061a after oral administration; assay type: in vivo, rats
Protocol: as §1, with “Urine samples were collected in a metabolic cage for 9 hr after the administration of the SK14-061a solution.” left out, “analysis.” for “analysis. All data are expressed as the mean ± S.D. Statistical analyses for multiple comparisons were determined by an analysis of variance (two-way ANOVA) using the Bonferroni correction for multiple comparisons. A probability value of p < 0.05 was considered to be significant. A non-compartment model was used for the pharmacokinetic analysis. Parameters were calculated using the program of a moment analysis developed by Tabata et al. Half-life (t1/2) were calculated from the elimination phase. Area under the concentration-time curve (AUC) were calculated using the following equations: AUC=∫0∞Cdt”

[11] = system: HIV-1MDR; parameters: method as in PMID 15200030; conditions: clone with Ala62Val, Val75Leu, Phe77Leu, Phe116Tyr, Gln115Met; cited from earlier work
[12] = Metabolism assay in vitro with rat liver microsomes; assay type: in vitro ADME; conditions: 100 ng/ml, 0.2 mg/ml rat liver microsomal protein, 60 min, 37°C
Protocol: SK14-061a (100 ng/ml) was incubated with the incubation mixtures (0.1 M potassium phosphate buffer (pH 7.4), 10 mM MgCl2, 1 mM EDTA, 1 mM NADP+, 10 mM glucose-6-phosphate, 10 units/ml glucose-6-phosphate dehydrogenase, and 0.2 mg/ml of rat liver microsomal protein). After a 5 min pre-incubation of the incubation mixture at 37°C, the metabolic reactions were initiated by the addition of SK14-061a. After 60 min, the SK14-061a was extracted from the incubation samples using the SPE method, and the SK14-061a concentration determined by LC-MS.

[13] = target: T1, Human serum albumin (HSA) (Homo sapiens, UniProt P02768); assay: Protein binding by ultrafiltration, HSA; assay type: in vitro ADME; conditions: 600 μM HSA, 500 ng/mL
T1 construct: purchased Sigma-Aldrich (Tokyo, Japan)
T1 sequence (P02768 25-609): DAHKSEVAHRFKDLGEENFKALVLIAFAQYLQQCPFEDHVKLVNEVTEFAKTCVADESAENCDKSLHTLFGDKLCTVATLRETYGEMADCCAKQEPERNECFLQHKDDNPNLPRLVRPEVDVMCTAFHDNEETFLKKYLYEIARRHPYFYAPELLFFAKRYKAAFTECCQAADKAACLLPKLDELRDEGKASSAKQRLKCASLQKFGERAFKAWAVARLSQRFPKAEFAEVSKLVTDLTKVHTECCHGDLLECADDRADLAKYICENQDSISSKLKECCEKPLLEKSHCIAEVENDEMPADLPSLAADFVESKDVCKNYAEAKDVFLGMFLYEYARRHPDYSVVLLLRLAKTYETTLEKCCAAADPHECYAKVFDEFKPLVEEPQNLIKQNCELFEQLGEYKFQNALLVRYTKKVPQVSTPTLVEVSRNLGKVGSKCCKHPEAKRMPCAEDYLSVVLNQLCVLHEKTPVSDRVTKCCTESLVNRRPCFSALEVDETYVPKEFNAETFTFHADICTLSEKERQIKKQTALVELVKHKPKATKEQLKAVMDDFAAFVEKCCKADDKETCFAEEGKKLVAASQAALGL
Protocol: as §2

[14] = Protein binding by ultrafiltration, pooled human plasma; assay type: in vitro ADME; conditions: read-out: protein binding rate in human pooled plasma (converted)
Protocol: as §2

[15] = rat, plasma, po, 1 mg/kg, read-out: AUC
[16] = rat, plasma, po, 1 mg/kg, read-out: CL/F (converted)
[17] = rat, plasma, po, 1 mg/kg, read-out: Cmax
[18] = rat, plasma, po, 1 mg/kg, read-out: MRT
[19] = rat, plasma, po, 1 mg/kg, read-out: tmax
[20] = rats, p.o., ETV 1 mg/kg alone (SK14-061a (-))
[21] = rats, p.o., 1 mg/kg, 9 hr after oral administration

Structure (SMILES): N#C[C@]1(CO)O[C@@H](n2cnc3c(=O)[nH]c(N)nc32)C[C@@H]1O [4′-CN-2′-deoxyguanosine]
- activity against HBVA181T/N236T [1]: highly active
- activity against HBVL180M/S202G/M204V [2]: highly active
- activity against wild-type HBV [3]: highly active

- half-life ([4]; rat, plasma, po, 1 mg/kg): 1.98 ± 0.51 h
- AUC [4, 15]: 492 ± 31.5 ng·h/mL
- CL/F [4, 16]: 34 mL/min/kg
- Cmax [4, 17]: 135 ± 27.4 ng/mL
- MRT [4, 18]: 3.24 ± 0.68 h
- Tmax [4, 19]: 1.25 ± 0.43 h
- AUC [4, 20]: 261 ± 16.2 ng·h/mL
- CL/F [4, 20]: 64.2 ± 4.17 mL/min/kg
- Cmax [4, 20]: 147 ± 5.82 ng/mL
- MRT [4, 20]: 1.35 ± 0.03 h
- Tmax [4, 20]: 0.75 h
- t1/2 [4, 20]: 0.72 ± 0.05 h
Structure (SMILES): C=C1[C@H](CO)[C@@H](O)C[C@@H]1n1cnc2c(=O)[nH]c(N)nc21 [ETV, entecavir]

Structure (SMILES): N#C[C@]1(CO)O[C@@H](n2cnc3c(O)ncnc32)C[C@@H]1O [SK14-061a, 4′-cyano-2′-deoxyinosine]
- half-life ([5]; rat, plasma, iv, rats): 3.01 ± 1.48 h
- AUC ([5]; rat, plasma, iv, rats, i.v., read-out: AUC): 475 ± 82.2 ng·h/mL
- Cmax ([5]; rat, plasma, iv, rats): 431 ± 36.3 ng/mL
- MRT ([5]; rat, plasma, iv, rats): 3.58 ± 1.86 h
- clearance ([5]; rat, plasma, iv, rats): 34.7 mL/min/kg
- bioavailability ([5]; rat, plasma, oral, rats, p.o. vs i.v., read-out: F (bioavailability)): ~65%
- CL/F ([5]; rat, plasma, po): 55.3 mL/min/kg
- Cmax ([5]; rat, plasma, po): 48.8 ± 11.8 ng/mL
- MRT ([5]; rat, plasma, po): 5.47 ± 1.52 h
- half-life ([5]; rat, plasma, po, rats, alone (ETV (-))): ~3.6 h
- AUC ([5]; rat, plasma, po, rats, p.o., alone (ETV (-)), read-out: AUC): 308 ± 49.7 ng·h/mL
- Tmax ([5]; rat, plasma, po, rats, p.o., alone (ETV (-)), read-out: tmax): 1.3 h
- MAT (mean absorption time) ([5]; rats, p.o. vs i.v.): 1.89 h
- AUC ([5]; rats, p.o., alone (ETV (-))): 308 ± 49.7 ng·h/mL
- Tmax ([5]; rats, p.o., alone (ETV (-))): 1.29 ± 0.34 h
- distribution to liver compared with kidney [6]: distributed at higher levels to the liver than the kidney
- time of maximum distribution in the kidney ([6]; sampled at 1, 3 and 9 hr): 1 h
- time of maximum distribution in the liver ([6]; sampled at 1, 3 and 9 hr): 1 h
- half-life ([4]; rat, plasma, po, 1 mg/kg): 4.07 ± 2.2 h
- AUC [4, 15]: 972 ± 185 ng·h/mL
- CL/F [4, 16]: 17.7 mL/min/kg
- Cmax [4, 17]: 165 ± 46.6 ng/mL
- MRT [4, 18]: 3.14 ± 2.16 h
- Tmax [4, 19]: 1.07 ± 0.4 h
- change of alanine aminotransferase (ALT) vs control rats [7]: no significant changes
- change of aspartate aminotransferase (AST) vs control rats [7]: no significant changes
- change of blood urea nitrogen (BUN) vs control rats [7]: no significant changes
- change of creatinine vs control rats [7]: no significant changes
- activity against HIV-1M184V [8]: potent activity; also recorded: highly active
- binding rate to AGP [9]: about 22.1 ± 0.01%
- SK14-061a accumulated in the urine as share of the administered dose ([10]; during 72 hr after oral administration, authors' other study): about 45%
- dose excreted ([10]; rat, urine, po, rats, p.o., 1 mg/kg, 9 hr, taken together with bioavailability (approximately 65%), read-out: recovery of SK14-061a in urine taking bioavailability into account): ~30%
- amount of unchanged SK14-061a accumulated in the urine [10, 21]: about 46 ± 17 μg
- unchanged SK14-061a in urine as share of the administered dose [10, 21]: about 20%
- activity against HIV-1MDR [11]: potent activity
- non-metabolized form detected after incubation with rat microsomes [12]: 73.7 ± 10.7%
- binding rate to HSA [13]: about 14.7 ± 0.03%
- fraction unbound at 500 ng/mL [14]: ~0.363
